Columns and labels:
5-HT transporter [1] = molecular target: T1, 5-HT transporter (Rattus norvegicus, UniProt P31652); experiment: Inhibition of 3H-5-HT uptake in CV-1 cells transfected with the 5-HT transporter cDNA; type: cell-based; conditions: for inhibition of 5-HT uptake (in words): CV-1 cells transfected with 5HTT cDNA
5-HT transporter [2] = molecular target: T1, 5-HT transporter; experiment: 3H-5-HT uptake (saturation kinetics, ion dependence) in CV-1 cells transfected with the 5HTT cDNA; type: cell-based; conditions: read-out: Km of 3H-5-HT uptake; transfected CV-1 cells; 3H-5-HT 0.1 nM to 10 uM; 15 min; mean +/- SEM
5-HT transporter [3] = conditions: cited from earlier work
serotonergic neurons = conditions: cited from earlier work

T1 sequence (P31652 whole entry): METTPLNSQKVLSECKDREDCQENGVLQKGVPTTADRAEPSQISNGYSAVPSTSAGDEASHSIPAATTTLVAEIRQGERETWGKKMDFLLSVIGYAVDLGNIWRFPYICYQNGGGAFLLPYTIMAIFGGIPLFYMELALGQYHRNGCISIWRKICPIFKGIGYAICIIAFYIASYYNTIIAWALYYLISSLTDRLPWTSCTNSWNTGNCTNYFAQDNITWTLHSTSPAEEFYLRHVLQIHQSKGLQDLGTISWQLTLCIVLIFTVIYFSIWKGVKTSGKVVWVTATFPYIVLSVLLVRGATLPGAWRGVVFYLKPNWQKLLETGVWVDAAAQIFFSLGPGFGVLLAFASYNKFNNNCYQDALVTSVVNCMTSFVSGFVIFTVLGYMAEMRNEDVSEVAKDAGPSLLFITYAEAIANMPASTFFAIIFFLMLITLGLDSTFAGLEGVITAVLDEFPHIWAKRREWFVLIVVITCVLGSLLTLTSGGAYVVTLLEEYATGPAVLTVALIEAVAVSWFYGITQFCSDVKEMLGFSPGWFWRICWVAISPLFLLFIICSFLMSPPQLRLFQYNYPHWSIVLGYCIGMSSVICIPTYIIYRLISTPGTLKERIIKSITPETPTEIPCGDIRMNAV

Compound	inhibition of 5-HT uptake (in words) (5-HT transporter [1])	Ki (5-HT transporter [1]) [nM]	also measured
COC(=O)[C@H]1[C@@H](OC(=O)c2ccccc2)C[C@@H]2CC[C@H]1N2C [cocaine]	relatively potent inhibitor of 5-HT uptake		
NCCc1c[nH]c2ccc(O)cc12 [^3 H-5-HT, serotonin]			Km (5-HT transporter [2]): 0.529 ± 0.107 µM
NCCc1ccc(O)c(O)c1 [dopamine]	ineffective at blocking 5-HT uptake	> 10000	
OC1(c2ccc(Cl)cc2)c2ccccc2C2=NCCN21 (stereo not drawn) [mazindol]	lower affinity for the 5-HT transporter	548 ± 120	
NC[C@H](O)c1ccc(O)c(O)c1 [noradrenaline]	ineffective at blocking 5-HT uptake	> 10000	
CC(N)Cc1ccccc1 (stereo not drawn) [Amphetamine]			transport by the 5-HT transporter and release of 5-HT (in words) (5-HT transporter [3]): substrates for transport by the 5-HT transporter and stimulate release of 5-HT
CNC(C)Cc1ccc2c(c1)OCO2 (racemic) [± MDMA, 3,4-Methylenedioxy-methamphetamine]	potent inhibition of ^3 H-5-HT uptake	186 ± 27	neurotoxicity to serotonergic neurons (in words) (serotonergic neurons): potent neurotoxin of serotonergic neurons which causes irreversible cell degeneration
